From patent US20230382869A1, “Phenyl-3,4-dihydroisoquinolin-2(1h)-yl-ethan-1-one derivatives as dopamine d1receptor positive allosteric modulators” (Eli Lilly and Company, priority 2020, published 2023) come the findings set out here.

This assay concerns the target human D1 receptor (Homo sapiens (Human), UniProt P21728). As to the kind of experiment: Human D1 Receptor PAM Assay (cAMP HTRF, potentiator mode). The following applies: for EC50: HEK293 cells expressing human D1, with EC20 dopamine (12 nM final), cAMP, read-out: Abs EC50; for % Top (% Potentiation): fitted top, 0% = EC20 dopamine alone, 100% = 5 μM dopamine. In kind it is cell-based. The source says: The PAM activity of the compounds of the present invention may be measured essentially as described in Svensson et al., An Allosteric Potentiator of the Dopamine D1 Receptor Increases Locomotor Activity in Human D1 Knock-in Mices without Casusing Stereotypy or Tachyphylaxis. J. Pharmacol. Exp. Ther. (2017) 360:117-128.
More specifically, HEK293 cells that stably express the human D1 receptor (Accession number NM_000794) are generated by gene transduction using the pBABE-bleo retroviral vector and selected with Zeocin™ (InvivoGen). At approximately 80% confluency, the cells are harvested using TrypLE™ Express (Gibco), suspended in FBS plus 8% DMSO, and stored in liquid nitrogen. On the day of the assay, cells are thawed and resuspended in STIM buffer (Hanks Balanced Salt Solution supplemented with 0.1% BSA, 20 mM HEPES, 500 μM IBMX, and 100 μM ascorbic acid).
Test compound is serially diluted (1:2) with DMSO into assay plates (ProxiPlate-384 Plus, PerkinElmer) using acoustic dispensing (Labcyte) to provide 20 concentrations for full response curves. Test compound (80 nL) is added to 5 μL STIM buffer containing 2000 cells, and 5 μL of a 2×concentration dopamine solution in STIM buffer that will generate an EC20 level response (24 nM in stock solution, or 12 nM final) and a final DMSO concentration in the well of 0.8%. Plates are incubated at room temperature for a total reaction time of 60 min.
cAMP production is quantified using HTRF® detection (Cisbio) according to the manufacturer's instructions. Generally, lysis buffer containing anti-cAMP cryptate (5 μL) and D2-conjugate (from HTRF® kit)(5 μL) is added to the wells, plates are incubated for an additional 60-90 min, and the time-resolved fluorescence is detected using an EnVision™ plate reader (PerkinElmer). Fluorescence data is converted to cAMP concentrations using a cAMP standard curve and analyzing using a 4-parameter non-linear logistic equation (Genedata Screener, version 13.0.5-standard). For potentiator mode concentration-response curves, results are expressed as percent of the window between a response at EC20 concentration of dopamine alone (normalized to 0%) and the maximum response to dopamine (defined by response to 5 μM dopamine, final concentration, normalized as 100%). Absolute EC50 values are calculated based on the maximum and minimum responses of the control agonist (dopamine). The % Potentiation (% Top) is determined from the fitted top of the concentration response curve.

human D1 receptor, sequence (P21728 whole entry): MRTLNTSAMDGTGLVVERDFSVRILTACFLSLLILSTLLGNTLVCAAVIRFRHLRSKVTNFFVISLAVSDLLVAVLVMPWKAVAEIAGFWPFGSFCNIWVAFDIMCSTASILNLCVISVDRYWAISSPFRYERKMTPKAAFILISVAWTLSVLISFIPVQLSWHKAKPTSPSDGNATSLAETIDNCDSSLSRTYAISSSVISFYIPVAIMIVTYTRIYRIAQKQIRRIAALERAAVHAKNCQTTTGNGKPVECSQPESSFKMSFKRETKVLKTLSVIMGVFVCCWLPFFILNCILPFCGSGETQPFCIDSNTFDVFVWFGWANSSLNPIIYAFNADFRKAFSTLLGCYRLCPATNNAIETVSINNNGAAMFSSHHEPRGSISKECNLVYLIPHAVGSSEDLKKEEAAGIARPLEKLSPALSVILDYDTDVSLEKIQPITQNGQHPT

On to “2-(2,6-Dichlorophenyl)-1-[(1S,3R)-5-[4,4-difluoro-3-hydroxy-3-methyl-butyl]-3-(hydroxymethyl)-1-methyl-3,4-dihydro-1H-isoquinolin-2-yl]ethenone [Example 5]”, for which the EC50 (in general, the midpoint of the concentration-response curve) was found to be 7.96 nM and the “% Top (% Potentiation)” value came out at 101%.
Consider “2-(2,6-Dichlorophenyl)-1-[(1S,3R)-5-[4,4-difluoro-3-hydroxy-3-methyl-butyl]-3-(hydroxymethyl)-1-methyl-3,4-dihydro-1H-isoquinolin-2-yl]ethenone [Example 6]”, for which the EC50 is 12.7 nM and the “% Top (% Potentiation)” value was determined as 97.0%.
For `C[C@H]1c2cccc([C@@H]3C[C@H]3C(C)(C)O)c2C[C@H](CO)N1C(=O)Cc1c(Cl)cccc1Cl` (relative stereo) [Example 1, 2-(2,6-Dichlorophenyl)-1-[(1S,3R)-3-(hydroxymethyl)-5-[trans-2-(1-hydroxy-1-methyl-ethyl)cyclopropyl]-1-methyl-3,4-dihydro-1H-isoquinolin-2-yl]ethenone], the EC50 is 12.1 nM and the “% Top (% Potentiation)” value amounted to 94.2%.
Regarding `C[C@H]1c2cccc([C@@H]3C[C@H]3C(C)(C)O)c2C[C@H](CO)N1C(=O)Cc1c(Cl)cccc1Cl` (relative stereo) [Example 2, 2-(2,6-Dichlorophenyl)-1-[(1S,3R)-3-(hydroxymethyl)-5-[trans-2-(1-hydroxy-1-methyl-ethyl)cyclopropyl]-1-methyl-3,4-dihydro-1H-isoquinolin-2-yl]ethenone], the EC50 was determined as 8.28 nM and the “% Top (% Potentiation)” value came out at 96.4%.
As for `C[C@H]1c2cccc([C@@H]3C[C@@H]3C(C)(C)O)c2C[C@H](CO)N1C(=O)Cc1c(Cl)cccc1Cl` (relative stereo) [Example 3, 2-(2,6-Dichlorophenyl)-1-[(1S,3R)-3-(hydroxymethyl)-5-[cis-2-(1-hydroxy-1-methyl-ethyl)cyclopropyl]-1-methyl-3,4-dihydro-1H-isoquinolin-2-yl]ethenone], the EC50 came to 11.2 nM and the “% Top (% Potentiation)” value is on record as 91.9%.
With `C[C@H]1c2cccc([C@@H]3C[C@@H]3C(C)(C)O)c2C[C@H](CO)N1C(=O)Cc1c(Cl)cccc1Cl` (relative stereo) [Example 4, 2-(2,6-Dichlorophenyl)-1-[(1S,3R)-3-(hydroxymethyl)-5-[cis-2-(1-hydroxy-1-methyl-ethyl)cyclopropyl]-1-methyl-3,4-dihydro-1H-isoquinolin-2-yl]ethenone], the EC50 is 86.7 nM and the “% Top (% Potentiation)” value was 93.2%.
As for `C[C@@H]1c2ccc(F)c([C@@H]3C[C@H]3C(C)(C)O)c2C[C@H](CO)N1C(=O)Cc1c(F)cccc1Cl` (relative stereo) [Example 8, 2-(2-chloro-6-fluoro-phenyl)-1-[(1R,3R)-6-fluoro-3-(hydroxymethyl)-5-[trans-2-(1-hydroxy-1-methyl-ethyl)cyclopropyl]-1-methyl-3,4-dihydro-1H-isoquinolin-2-yl]ethenone], the EC50 turned out to be 33.6 nM and the “% Top (% Potentiation)” value is 78.9%.
For `C[C@@H]1c2ccc(F)c([C@@H]3C[C@H]3C(C)(C)O)c2C[C@H](CO)N1C(=O)Cc1c(F)cccc1Cl` (relative stereo) [Example 9, 2-(2-chloro-6-fluoro-phenyl)-1-[(1R,3R)-6-fluoro-3-(hydroxymethyl)-5-[trans-2-(1-hydroxy-1-methyl-ethyl)cyclopropyl]-1-methyl-3,4-dihydro-1H-isoquinolin-2-yl]ethenone], the EC50 came to 13.2 nM and the “% Top (% Potentiation)” value is reported as 82.0%.
Regarding `C[C@H]1c2ccc(F)c([C@@H]3C[C@H]3C(C)(C)O)c2C[C@H](CO)N1C(=O)Cc1c(Cl)cccc1Cl` (relative stereo) [Example 10, 2-(2,6-dichlorophenyl)-1-[(1S,3R)-6-fluoro-3-(hydroxymethyl)-5-[trans-(1-hydroxy-1-methyl-ethyl)cyclopropyl]-1-methyl-3,4-dihydro-1H-isoquinolin-2-yl]ethenone], the EC50 was determined as 12.3 nM and the “% Top (% Potentiation)” value is 86.9%.
Consider `C[C@H]1c2ccc(F)c([C@@H]3C[C@H]3C(C)(C)O)c2C[C@H](CO)N1C(=O)Cc1c(Cl)cccc1Cl` (relative stereo) [Example 11, 2-(2,6-dichlorophenyl)-1-[(1S,3R)-6-fluoro-3-(hydroxymethyl)-5-[trans-(1-hydroxy-1-methyl-ethyl)cyclopropyl]-1-methyl-3,4-dihydro-1H-isoquinolin-2-yl]ethenone], for which the EC50 came out at 5.19 nM and the “% Top (% Potentiation)” value was found to be 92.7%.
